Values quoted from earlier work as cited in patent publication EP2168584A1, “PHARMACEUTICAL COMPOSITION COMPRISING THE COMBINATION OF A TRIAZOLOBENZODIAZEPINE AND A SELECTIVE SEROTONIN REUPTAKE INHIBITOR” (World Trade Import-Export, WTIE A.G., priority 2007, dated 2009).
Like-named read-outs stand apart in the source and are kept apart here.

How the values were obtained:
[1] = relative to the therapeutic activity of Alprazolam

For `Cc1nnc2n1-c1ccc(Cl)cc1C(c1ccccc1)=NC2` [Alprazolam], the “half-life of plasma elimination, range” value (human, in vivo) is given as 6.3 to 26.9 h, the “Maximum plasma concentrations are obtained (time after administration)” value (human, in vivo, po) is given as 1 to 2 h and the “bound to human serum proteins” value (human serum proteins) is given as 80%.
For `CNCCC(Oc1ccc(C(F)(F)F)cc1)c1ccccc1` (stereo not drawn) [Fluoxetine], the “degree of fixation of plasma proteins” value (plasma proteins) is listed as “especially high”.
For `Fc1ccc([C@@H]2CCNC[C@H]2COc2ccc3c(c2)OCO3)cc1` [Paroxetine], the elimination half-life (elderly and severe hepatic failure patients) is given as ≤ 36 h, the oral bioavailability (first-step metabolism) is given as 50% and the elimination half-life (human, in vivo) is given as 21 h. The dose metabolized (mainly in the liver, inactive metabolites) was “More than 95%”, the “degree of fixation of plasma proteins” value (plasma proteins) was “especially high” and the “binds to plasma proteins” value (plasma proteins; plasma) was 95%.
For `CN[C@H]1CC[C@@H](c2ccc(Cl)c(Cl)c2)c2ccccc21` [Sertraline], the “degree of fixation of plasma proteins” value (plasma proteins) is given as “especially high”.
In the case of `OCc1nnc2n1-c1ccc(Cl)cc1C(c1ccccc1)=NC2` [alpha-hydroxy-alprazolam], the “biological activity of metabolite” value [1] is listed as “approximately to half of the therapeutic activity of Alprazolam”.
